{"source": "patent US9556110B2", "about": "“Aminoalcohol lipidoids and uses thereof” (Massachusetts Institute of Technology, priority 2008, dated 2017)", "test_system": "Factor VII", "test": "In vivo Factor VII knockdown after injection of anti-Factor VII siRNA lipidoid formulations", "set-up": "species or system C57BL/6 mice", "details": "mice, 0.01 mg/kg siRNA dosing", "method": "C57BL/6 mice (Charles River Labs) received either saline or siRNA in lipidoid formulations via tail vein injection at a volume of 0.01 ml/g. […] At 48 hours after administration, animals were anesthetized by isofluorane inhalation and blood was collected into serum separator tubes by retroorbital bleed. Serum levels of Factor VII protein were determined in samples using a chromogenic assay (Biophen FVII, Aniara Corporation) according to the manufacturer's protocols. A standard curve was generated using serum collected from saline-treated animals. Exemplary results are depicted in FIG. 7.\nTo test siRNA delivery efficacy in vivo, a mouse model for liver delivery was used. […] Once produced by hepatocytes, Factor VII is released into the bloodstream, and a baseline level of expression can be determined by simple blood draw and quantification of protein levels by colorimetric assay. By delivering anti-Factor VII siRNA to hepatocytes, knockdown of this model protein can be achieved and a percentage of silencing can be determined by comparison to an untreated control. […]\nFollowing the initial in vivo screening experiments, two compounds were used to conduct a dose response. […] In addition to Factor VII measurement, the change in mouse body weight is recorded and a loss in weight is generally considered formulation induced toxicity (See FIG. 13b and FIG. 14b). […]"}
{"smiles": "CCCCCCCCCCC(O)CN(CCN1CCN(CCN(CC(O)CCCCCCCCCC)CC(O)CCCCCCCCCC)CC1)CCN(CC(O)CCCCCCCCCC)CC(O)CCCCCCCCCC", "note": "(racemic) [C12-200]", "values": [{"measurement": "difference of Factor VII reduction between racemic lipidoid and R or S forms", "result": "insignificant"}]}
{"smiles": "CCCCCCCCCC[C@H](O)CN(CCN1CCN(CCN(C[C@@H](O)CCCCCCCCCC)C[C@@H](O)CCCCCCCCCC)CC1)CCN(C[C@@H](O)CCCCCCCCCC)C[C@@H](O)CCCCCCCCCC", "note": "[(S)—C12-200]", "values": [{"measurement": "reduction of systemic Factor VII", "setting": "preliminary", "result": "approximately 50%"}]}
